Reference: US10738035B2, “Hepatitis B antiviral agents” (Enanta Pharmaceuticals, Inc., priority 2015, dated 2020)

How the values were obtained:
[1] = Compound toxicity, ATPLite (CC50); details: human, HepAD38 cells
Procedure: (§1) Briefly, cells are passaged upon attaining confluency in DMEM/F12 media in the presence of 10% FBS, Penn/Strep, 250 μg/mL G418, and 1 μg/ml tetracycline. Novel compounds are screened by first washing cells three times with PBS to remove tetracycline, and plating in 96 well plates at 35,000 cells/well. Compounds dissolved in DMSO are then diluted 1:200 into wells containing cells. Five days after compound addition, material is harvested for analysis.
Compound toxicity is evaluated by seeding cells at 15,000 cells/well and treating with compound as described above.

[2] = system: hepatitis B virus (HBV); test: HepAD38 antiviral assay (viral product accumulation, EC50); details: HePAD38, 120 h, read-out: HepAD38 EC50
Procedure: as §1
On harvest day, virion DNA is obtained by lysing with Sidestep Lysis and Stabilization Buffer and then quantified via quantitative real time PCR. Commercially available ELISA kits are used to quantitate the viral proteins HBsAg (Alpco) or HbeAg (US Biological) by following the manufacturer's recommended protocol after diluting samples to match the linear range of their respective assays.

Structure (SMILES)	CC50 at 3 days [1] [µM]	EC50 [2] [µM]
CN(CCO)C(=O)Nc1cc(C(=O)Nc2cc(F)c(F)c(F)c2)n(C)n1 [Example 21]	> 30	1 to 10
Cn1nc(NC(=O)N2CCC(F)(F)CC2)cc1C(=O)Nc1cc(F)c(F)c(F)c1 [Example 18]	> 30	1 to 10
Cn1nc(NC(=O)N2CCCCC2)cc1C(=O)Nc1cc(F)c(F)c(F)c1 [Example 16]	< 10	1 to 10
Cn1nc(C(=O)Nc2cc(F)c(F)c(F)c2)cc1NC(=O)N1CCC(O)CC1 [Example 13]	> 10	> 10
CN(CCCO)C(=O)Nc1cc(C(=O)Nc2cc(F)c(F)c(F)c2)n(C)n1 [Example 39]	> 30	1 to 10
CCCN(C)C(=O)Nc1cc(C(=O)Nc2cc(F)c(F)c(F)c2)n(C)n1 [Example 30]	> 30	< 1
Cn1nc(NC(=O)N2CCC(O)CC2)cc1C(=O)Nc1ccc(O)c(F)c1 [Example 35]	> 30	> 10
Cn1nc(NC(=O)N2CCC(O)CC2)cc1C(=O)Nc1ccc(C(=O)O)cc1 [Example 74]	> 30	> 10
O=C(Nc1cc(F)c(F)c(F)c1)c1ccc(Cl)c(NS(=O)(=O)N2CCC(O)CC2)c1 [Example 71]	> 30	1 to 10
O=C(Nc1cc(F)c(F)c(F)c1)c1cc(NC(=O)N2CCC(O)CC2)no1 [Example 9]	< 10	> 10
Cn1nc(NC(=O)N2CCC(O)CC2)cc1C(=O)Nc1ccc(F)cc1 [Example 34]	> 30	1 to 10
Cn1nc(NC(=O)N2CCOCC2)cc1C(=O)Nc1cc(F)c(F)c(F)c1 [Example 20]	> 30	1 to 10
CCCCNC(=O)Nc1cc(C(=O)Nc2cc(F)c(F)c(F)c2)n(C)n1 [Example 31]	> 30	1 to 10
Cn1nc(NC(=O)N2CCC(O)CC2)cc1C(=O)Nc1ccc(F)c(C#N)c1 [Example 53]	> 30	1 to 10
Cn1nc(NC(=O)N2CCC(O)CC2)cc1C(=O)Nc1ccccn1 [Example 61]	> 30	> 10
Cn1nc(NC(=O)N2CCC(O)CC2)cc1C(=O)Nc1ccc(C(C)(C)C)cc1 [Example 69]	> 30	> 10
CC(C)N(C)C(=O)Nc1cc(C(=O)Nc2cc(F)c(F)c(F)c2)n(C)n1 [Example 57]	< 10	1 to 10
Cn1nc(NC(=O)N2CCC(C)(O)CC2)cc1C(=O)Nc1cc(F)c(F)c(F)c1 [Example 19]	> 30	1 to 10
Cn1nc(NC(=O)NCCO)cc1C(=O)Nc1cc(F)c(F)c(F)c1 [Example 32]	10 to 30	1 to 10
Cn1nc(NC(=O)N2CCC(O)CC2)cc1C(=O)Nc1cc(F)c(F)c(Cl)c1 [Example 60]	< 10	1 to 10
CCc1ccc(NC(=O)c2cc(NC(=O)N3CCC(O)CC3)nn2C)cc1 [Example 66]	> 30	> 10
COC(=O)c1cccc(NC(=O)c2cc(NC(=O)N3CCC(O)CC3)nn2C)c1 [Example 73]	> 30	> 10
CC(C)c1cccc(NC(=O)c2cc(NC(=O)N3CCC(O)CC3)nn2C)c1 [Example 68]	> 10	> 10
Cn1nc(NC(=O)N2CCC(O)CC2)cc1C(=O)Nc1ccccc1 [Example 51]	> 30	> 10
CN(C(=O)Nc1cc(C(=O)Nc2cc(F)c(F)c(F)c2)n(C)n1)C1CC1 [Example 22]	> 30	> 10

Structure (SMILES)	CC50 at 3 days [1] [µM]	EC50 [2] [µM]
Cn1nc(NC(=O)N2CCC(O)CC2)cc1C(=O)Nc1ccc(O)cc1 [Example 62]	> 30	> 10
CN(Cc1ccccc1)C(=O)Nc1cc(C(=O)Nc2cc(F)c(F)c(F)c2)n(C)n1 [Example 23]	< 10	1 to 10
Cn1nc(NC(=O)N2CCC(O)CC2)cc1C(=O)Nc1ccc(F)c(Cl)c1 [Example 48]	< 10	1 to 10
Cn1nc(NC(=O)N2CCC(O)CC2)cc1C(=O)Nc1ccc(F)c(C(F)(F)F)c1 [Example 52]	> 30	1 to 10
COc1cccc(NC(=O)c2cc(NC(=O)N3CCC(O)CC3)nn2C)c1 [Example 65]	> 30	> 10
Cn1nc(NC(=O)NCC2(C)CC2)cc1C(=O)Nc1cc(F)c(F)c(F)c1 [Example 26]	> 30	< 1
Cn1nc(NC(=O)N2CCC(O)CC2)cc1C(=O)Nc1ccc(F)cc1F [Example 47]	> 30	> 10
Cn1c(NC(=O)N2CCC(O)CC2)cnc1C(=O)Nc1cc(F)c(F)c(F)c1 [Example 6]	> 10	> 10
CN(C(=O)Nc1cc(C(=O)Nc2cc(F)c(F)c(F)c2)n(C)n1)C1CCCCC1 [Example 28]	> 30	< 1
CC(C)CN(C)C(=O)Nc1cc(C(=O)Nc2cc(F)c(F)c(F)c2)n(C)n1 [Example 41]	> 30	< 1
Cn1nc(NC(=O)N2CCC(O)CC2)cc1C(=O)Nc1ccncc1 [Example 56]	> 30	> 10
Cn1nc(NC(=O)N2CCC(O)CC2)cc1C(=O)Nc1cccc(O)c1 [Example 63]	> 30	> 10
Cn1nc(NC(=O)N2CCC(O)CC2)cc1C(=O)Nc1cc(F)c(F)c(F)c1 [Example 3]	> 30	< 1
Cn1nc(NC(=O)OCCO)cc1C(=O)Nc1cc(F)c(F)c(F)c1 [Example 15]	> 30	< 1
COc1cc(NC(=O)c2cc(NC(=O)N3CCC(O)CC3)nn2C)ccc1F [Example 55]	> 30	> 10
Cn1nc(NC(=O)N2CCC(O)CC2)cc1C(=O)Nc1ccc(F)c(F)c1 [Example 44]	> 30	1 to 10
Cn1nc(NC(=O)C2CCC(O)CC2)cc1C(=O)Nc1cc(F)c(F)c(F)c1 (stereo not shown) [Example 14]	> 30	1 to 10
Cn1nc(NS(=O)(=O)N2CCC(OCc3ccccc3)CC2)cc1C(=O)Nc1cc(F)c(F)c(F)c1 [Example 12]	10 to 30	1 to 10
Cn1nc(NC(=O)NCCS(C)(=O)=O)cc1C(=O)Nc1cc(F)c(F)c(F)c1 [Example 42]	> 30	1 to 10
Cn1nc(NC(=O)N2CCC(O)CC2)cc1-c1ncc(-c2cc(F)c(F)c(F)c2)[nH]1 [Example 8]	> 10	> 10
CC(C)c1ccc(NC(=O)c2cc(NC(=O)N3CCC(O)CC3)nn2C)cc1 [Example 67]	> 30	> 10
Cn1nc(NC(=O)N2CCC(O)CC2)cc1C(=O)Nc1ccc(F)c(O)c1 [Example 50]	> 30	> 10
COc1ccc(NC(=O)c2cc(NC(=O)N3CCC(O)CC3)nn2C)cc1 [Example 64]	> 30	> 10
Cn1nc(NC(=O)N2CCC(O)CC2)cc1C(=O)Nc1ccc(Cl)c(F)c1 [Example 49]	> 30	1 to 10
Cn1cc(NC(=O)N2CCC(O)CC2)nc1C(=O)Nc1cc(F)c(F)c(F)c1 [Example 10]	> 30	> 10
